Results taken from PubChem BioAssay (NCI).
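Abbreviation: GI50, concentration required for 50% inhibition of growth. At the TGI there is no net growth.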

Legend:
Experiment in all cases: NCI-60 cell line screen, 384-well format
UACC-257 melanoma = test system: UACC-257 melanoma
MDA-MB-435 melanoma = test system: MDA-MB-435 melanoma
LOX IMVI melanoma = test system: LOX IMVI melanoma
HL-60(TB) leukemia = test system: HL-60(TB) leukemia
SK-MEL-5 melanoma = test system: SK-MEL-5 melanoma
DU-145 prostate = test system: DU-145 prostate
SNB-19 CNS = test system: SNB-19 CNS
SR leukemia = test system: SR leukemia
TK-10 renal = test system: TK-10 renal
EKVX NSCLC = test system: EKVX NSCLC
786-0 renal = test system: 786-0 renal
MDA-MB-468 breast = test system: MDA-MB-468 breast
A498 renal = test system: A498 renal
SF-539 CNS = test system: SF-539 CNS
SW-620 colon = test system: SW-620 colon
RPMI-8226 leukemia = test system: RPMI-8226 leukemia
UACC-62 melanoma = test system: UACC-62 melanoma
HCC-2998 colon = test system: HCC-2998 colon
HS 578T breast = test system: HS 578T breast
SF-268 CNS = test system: SF-268 CNS
MCF7 breast = test system: MCF7 breast
U251 glioblastoma = test system: U251 glioblastoma
PC-3 prostate = test system: PC-3 prostate
COLO 205 colon = test system: COLO 205 colon
OVCAR-4 ovarian = test system: OVCAR-4 ovarian
KM12 colon = test system: KM12 colon
K-562 leukemia = test system: K-562 leukemia
HT29 colon = test system: HT29 colon
NCI-H23 lung = test system: NCI-H23 lung
CAKI-1 renal = test system: CAKI-1 renal
OVCAR-8 ovarian = test system: OVCAR-8 ovarian
NCI/ADR-RES ovarian = test system: NCI/ADR-RES ovarian
SK-MEL-28 melanoma = test system: SK-MEL-28 melanoma
IGROV1 ovarian = test system: IGROV1 ovarian
NCI-H460 NSCLC = test system: NCI-H460 NSCLC
HCT-116 colon = test system: HCT-116 colon
SNB-75 CNS = test system: SNB-75 CNS
A549 NSCLC = test system: A549 NSCLC
T-47D breast = test system: T-47D breast
NCI-H226 lung = test system: NCI-H226 lung
OVCAR-3 ovarian = test system: OVCAR-3 ovarian
HOP-62 NSCLC = test system: HOP-62 NSCLC
HCT-15 colon = test system: HCT-15 colon
SK-OV-3 ovarian = test system: SK-OV-3 ovarian
UO-31 renal = test system: UO-31 renal
SK-MEL-2 melanoma = test system: SK-MEL-2 melanoma
NCI-H522 lung = test system: NCI-H522 lung
SN12C renal = test system: SN12C renal
BT-549 breast = test system: BT-549 breast
CCRF-CEM leukemia = test system: CCRF-CEM leukemia
OVCAR-5 ovarian = test system: OVCAR-5 ovarian
HOP-92 NSCLC = test system: HOP-92 NSCLC
SF-295 CNS = test system: SF-295 CNS
MOLT-4 leukemia = test system: MOLT-4 leukemia
NCI-H322M lung = test system: NCI-H322M lung
RXF 393 renal = test system: RXF 393 renal
M14 melanoma = test system: M14 melanoma
MDA-MB-231 breast = test system: MDA-MB-231 breast
MALME-3M melanoma = test system: MALME-3M melanoma
ACHN renal = test system: ACHN renal

Q: For `C[C@@H](Oc1cc(-c2cnn(C3CCNCC3)c2)cnc1N)c1c(Cl)cc(F)cc1Cl`, which GI50 (UACC-257 melanoma) is on record?
A: 1.67 µM

Q: And the TGI (UACC-257 melanoma)?
A: 3.04 µM

Q: And the GI50 (MDA-MB-435 melanoma)?
A: 2.57 µM

Q: And the TGI (MDA-MB-435 melanoma)?
A: 6.79 µM

Q: And the GI50 (LOX IMVI melanoma)?
A: 1.33 µM

Q: And the TGI (LOX IMVI melanoma)?
A: 2.63 µM

Q: What about the GI50 (HL-60(TB) leukemia) of the same molecule?
A: 0.256 µM

Q: What about the TGI (HL-60(TB) leukemia) of the same molecule?
A: 0.485 µM

Q: And the GI50 (SK-MEL-5 melanoma)?
A: 1.39 µM

Q: What about the TGI (SK-MEL-5 melanoma) of the same molecule?
A: 2.7 µM

Q: What about the GI50 (DU-145 prostate) of the same molecule?
A: 2.09 µM

Q: And the TGI (DU-145 prostate)?
A: 6.25 µM

Q: And the GI50 (SNB-19 CNS)?
A: 3.87 µM

Q: And the TGI (SNB-19 CNS)?
A: 8.61 µM

Q: What about the GI50 (SR leukemia) of the same molecule?
A: 0.0423 µM

Q: And the TGI (SR leukemia)?
A: 0.0738 µM

Q: And the GI50 (TK-10 renal)?
A: 3.66 µM

Q: And the TGI (TK-10 renal)?
A: 7.63 µM

Q: What about the GI50 (EKVX NSCLC) of the same molecule?
A: 2.2 µM

Q: And the TGI (EKVX NSCLC)?
A: 6.7 µM

Q: What about the GI50 ([…]-0 renal) of the same molecule?
A: 1.48 µM

Q: And the TGI (786-0 renal)?
A: 2.96 µM

Q: What about the GI50 (MDA-MB-468 breast) of the same molecule?
A: 0.725 µM

Q: And the TGI (MDA-MB-468 breast)?
A: 1.56 µM

Q: What about the GI50 (A498 renal) of the same molecule?
A: 1.65 µM

Q: What about the TGI (A498 renal) of the same molecule?
A: 3.84 µM

Q: And the GI50 (SF-539 CNS)?
A: 1.7 µM

Q: And the TGI (SF-539 CNS)?
A: 3.65 µM

Q: And the GI50 (SW-620 colon)?
A: 1.25 µM

Q: What about the TGI (SW-620 colon) of the same molecule?
A: 4.65 µM

Q: What about the GI50 (RPMI-8226 leukemia) of the same molecule?
A: 1.16 µM

Q: And the TGI (RPMI-8226 leukemia)?
A: 2.97 µM

Q: And the GI50 (UACC-62 melanoma)?
A: 1.39 µM

Q: And the TGI (UACC-62 melanoma)?
A: 3.09 µM

Q: And the GI50 (HCC-2998 colon)?
A: 2.21 µM

Q: And the TGI (HCC-2998 colon)?
A: 4.91 µM

Q: What about the GI50 (HS 578T breast) of the same molecule?
A: 1.48 µM

Q: And the TGI (HS 578T breast)?
A: 3.71 µM

Q: What about the GI50 (SF-268 CNS) of the same molecule?
A: 2.21 µM

Q: And the TGI (SF-268 CNS)?
A: 5.32 µM

Q: And the GI50 (MCF7 breast)?
A: 0.614 µM

Q: And the TGI (MCF7 breast)?
A: 1.86 µM

Q: And the GI50 (U251 glioblastoma)?
A: 2.78 µM

Q: What about the TGI (U251 glioblastoma) of the same molecule?
A: 7.16 µM

Q: And the GI50 (PC-3 prostate)?
A: 1.94 µM

Q: And the TGI (PC-3 prostate)?
A: 5.57 µM

Q: What about the GI50 (COLO 205 colon) of the same molecule?
A: 0.971 µM

Q: What about the TGI (COLO 205 colon) of the same molecule?
A: 2.39 µM

Q: And the GI50 (OVCAR-4 ovarian)?
A: 5.81 µM

Q: What about the TGI (OVCAR-4 ovarian) of the same molecule?
A: 11 µM

Q: What about the GI50 (KM12 colon) of the same molecule?
A: 0.0431 µM

Q: What about the TGI (KM12 colon) of the same molecule?
A: 2.27 µM

Q: And the GI50 (K-562 leukemia)?
A: 0.131 µM

Q: And the TGI (K-562 leukemia)?
A: 0.262 µM

Q: And the GI50 (HT29 colon)?
A: 1.02 µM

Q: What about the TGI (HT29 colon) of the same molecule?
A: 2.3 µM

Q: And the GI50 (NCI-H23 lung)?
A: 0.641 µM

Q: What about the TGI (NCI-H23 lung) of the same molecule?
A: 2.42 µM

Q: What about the GI50 (CAKI-1 renal) of the same molecule?
A: 1.35 µM

Q: What about the TGI (CAKI-1 renal) of the same molecule?
A: 2.98 µM

Q: And the GI50 (OVCAR-8 ovarian)?
A: 2.03 µM

Q: What about the TGI (OVCAR-8 ovarian) of the same molecule?
A: 5.41 µM

Q: And the GI50 (NCI/ADR-RES ovarian)?
A: 6.36 µM

Q: And the TGI (NCI/ADR-RES ovarian)?
A: 16 µM

Q: What about the GI50 (SK-MEL-28 melanoma) of the same molecule?
A: 1.6 µM

Q: What about the TGI (SK-MEL-28 melanoma) of the same molecule?
A: 3.09 µM

Q: What about the GI50 (IGROV1 ovarian) of the same molecule?
A: 2.77 µM

Q: And the TGI (IGROV1 ovarian)?
A: 7.26 µM

Q: What about the GI50 (NCI-H460 NSCLC) of the same molecule?
A: 0.529 µM

Q: What about the TGI (NCI-H460 NSCLC) of the same molecule?
A: 2.65 µM

Q: And the GI50 (HCT-116 colon)?
A: 0.728 µM

Q: What about the TGI (HCT-116 colon) of the same molecule?
A: 1.97 µM

Q: And the GI50 (SNB-75 CNS)?
A: 1.9 µM

Q: What about the TGI (SNB-75 CNS) of the same molecule?
A: 3.85 µM

Q: And the GI50 (A549 NSCLC)?
A: 0.86 µM

Q: What about the TGI (A549 NSCLC) of the same molecule?
A: 4.42 µM

Q: And the GI50 (T-47D breast)?
A: 2.19 µM

Q: What about the TGI (T-47D breast) of the same molecule?
A: 6.11 µM

Q: And the GI50 (NCI-H226 lung)?
A: 1.25 µM

Q: What about the TGI (NCI-H226 lung) of the same molecule?
A: 3.25 µM

Q: What about the GI50 (OVCAR-3 ovarian) of the same molecule?
A: 2.54 µM

Q: And the TGI (OVCAR-3 ovarian)?
A: 6.47 µM

Q: What about the GI50 (HOP-62 NSCLC) of the same molecule?
A: 2.16 µM

Q: And the TGI (HOP-62 NSCLC)?
A: 6.37 µM

Q: What about the GI50 (HCT-15 colon) of the same molecule?
A: 1.72 µM

Q: What about the TGI (HCT-15 colon) of the same molecule?
A: 5.47 µM

Q: And the GI50 (SK-OV-3 ovarian)?
A: 5.4 µM

Q: And the TGI (SK-OV-3 ovarian)?
A: 9.79 µM

Q: What about the GI50 (UO-31 renal) of the same molecule?
A: 2.64 µM

Q: And the TGI (UO-31 renal)?
A: 6.43 µM

Q: And the GI50 (SK-MEL-2 melanoma)?
A: 1.45 µM

Q: What about the TGI (SK-MEL-2 melanoma) of the same molecule?
A: 2.76 µM

Q: What about the GI50 (NCI-H522 lung) of the same molecule?
A: 3.21 µM

Q: What about the TGI (NCI-H522 lung) of the same molecule?
A: 7.29 µM

Q: What about the GI50 (SN12C renal) of the same molecule?
A: 2.11 µM

Q: What about the TGI (SN12C renal) of the same molecule?
A: 8.7 µM

Q: What about the GI50 (BT-549 breast) of the same molecule?
A: 1.85 µM

Q: What about the TGI (BT-549 breast) of the same molecule?
A: 3.45 µM

Q: And the GI50 (CCRF-CEM leukemia)?
A: 0.277 µM

Q: What about the TGI (CCRF-CEM leukemia) of the same molecule?
A: 0.66 µM

Q: And the GI50 (OVCAR-5 ovarian)?
A: 2.22 µM

Q: What about the TGI (OVCAR-5 ovarian) of the same molecule?
A: 6.92 µM

Q: And the GI50 (HOP-92 NSCLC)?
A: 1.03 µM

Q: And the TGI (HOP-92 NSCLC)?
A: 2.36 µM

Q: What about the GI50 (SF-295 CNS) of the same molecule?
A: 1.21 µM

Q: And the TGI (SF-295 CNS)?
A: 4.3 µM

Q: What about the GI50 (MOLT-4 leukemia) of the same molecule?
A: 0.196 µM

Q: What about the TGI (MOLT-4 leukemia) of the same molecule?
A: 0.377 µM

Q: What about the GI50 (NCI-H322M lung) of the same molecule?
A: 2.88 µM

Q: And the TGI (NCI-H322M lung)?
A: 8.37 µM

Q: And the GI50 (RXF 393 renal)?
A: 1.94 µM

Q: And the TGI (RXF 393 renal)?
A: 3.61 µM

Q: And the GI50 (M14 melanoma)?
A: 1.49 µM

Q: And the TGI (M14 melanoma)?
A: 2.83 µM

Q: And the GI50 (MDA-MB-231 breast)?
A: 1.55 µM

Q: What about the TGI (MDA-MB-231 breast) of the same molecule?
A: 3.49 µM

Q: What about the GI50 (MALME-3M melanoma) of the same molecule?
A: 1.23 µM

Q: And the TGI (MALME-3M melanoma)?
A: 2.48 µM

Q: And the GI50 (ACHN renal)?
A: 1.89 µM

Q: What about the TGI (ACHN renal) of the same molecule?
A: 5.77 µM
